The text below walks through data of patent US20090041839A1, “PHARMACEUTICAL COMPOSITIONS FOR THE TREATMENT OF PAIN” (priority 2007, published 2009).

One data set concerns adenosine A1 receptors. Particulars: Li et al. 2003, U.S. Pat. No. 6,248,774 and No. 6,489,356, cited from earlier work.
Data set [1] can be described thus: Multiple escalating dose pharmacokinetic study of T-62 soft gelatin capsules (Example 12). The class given is in vivo. The conditions noted are these: both sexes, human, plasma, healthy adults; for Tmax: median; for AUC(0-inf) / Cmax / AUC: po, arithmetic mean (SD); for AUC: τ = 12 hours, read-out: AUC0-τ. On the procedure: A single-center, randomized, double-blind, parallel-group, placebo-controlled study of the safety, tolerability, and pharmacokinetics of escalating multiple doses of a T-62 composition in soft gelatin capsules (oral dosage form 4) in healthy adult male and female subjects was carried out.
Three cohorts of 12 subjects were enrolled for the study (19-38 years of age). Subjects in each cohort were randomly assigned in a 3:1 allocation to receive multiple doses of either T-62 (n=9) or placebo (n=3). Subjects in each cohort received study medication for a total of 6 days. Subjects in the first cohort received multiple doses of 100 mg T-62 or placebo. Subsequent cohorts of 12 new subjects each received multiple doses of placebo or a higher dose level of T-62 (i.e., 2×100 mg for the second cohort and 4×100 mg for the third cohort).
Each subject in each dosing cohort completed Screening, Baseline, Treatment, and Follow-Up Phases. The Screening Phase was conducted on an outpatient basis within 30 days, but no less than 3 days, prior to the start of the Baseline Phase. The Baseline Phase consisted of clinical research unit (CRU) admission and final qualification assessments. The Treatment Phase comprised of dosing, post-treatment safety assessments, and blood collection.
On the morning of Day 1, subjects received a single dose of study drug; no additional study drug were administered on Day 1. Twice-daily dosing (one morning dose and one evening dose) commenced on Day 2 and continue through Day 5. Subjects received a final dose of study drug on the morning of Day 6. Once subjects in each cohort had completed dosing, an additional 48 hours of blood sampling was conducted following the final dose to characterize the pharmacokinetics of T-62 at steady state. Subjects were discharged at the end of the 48-hour blood sampling (Day 8). The Follow-Up Phase occurred 2 days (but no more than 4 days) after discharge from the CRU.
For all cohorts, on Day 2 through Day 5, subjects were not allowed to eat any food beginning 1 hour prior to the morning and evening doses of study drug and until 2 hours after study drug administration. On Day 1 and Day 6, subjects fasted for a minimum of 9 hours pre-dose to 4 hours post-dose.
Blood samples for determining plasma concentrations of T-62 and pharmacokinetic parameters were obtained immediately prior to dosing on Day 1 and at regular intervals post-dosing over 12 hours in each treatment cohort. On Days 2-5, blood samples for pharmacokinetic analysis were collected each day prior to the morning and evening doses of study drug. Once subjects in each cohort had completed dosing on Day 6, an additional 48 hours of plasma sampling were conducted following the final dose of study drug to characterize the pharmacokinetics of T-62 at steady state.

[2] abbreviates: 200 mg, Day 1, single dose 2 × 100 mg (oral dosage form 4), n = 9.
The mark [3] stands for this setting: 400 mg, Day 1, single dose 4 × 100 mg (oral dosage form 4), n = 9.
The mark [4] stands for this setting: 100 mg, Day 1, single dose 100 mg (oral dosage form 4), n = 8.
Where [5] appears, read: 100 mg, Steady state (Day 6), 100 mg BID (oral dosage form 4), n = 8.
The mark [6] stands for this setting: 200 mg, Steady state (Day 6), 2 × 100 mg BID (oral dosage form 4), n = 9.
The mark [7] stands for this setting: 400 mg, Steady state (Day 6), 4 × 100 mg BID (oral dosage form 4), n = 9.

Where two headings read alike, the source gives them in different places.

As a reminder, the Tmax is the time at which the peak concentration occurs. For orientation: AUC(0-inf) means the area under the concentration-time curve extrapolated to infinity. Low readings indicate less exposure, high ones more exposure. Broadly, the Cmax is the peak of the concentration-time curve. Take `Nc1sc2c(c1C(=O)c1ccc(Cl)cc1)CCCC2` [T-62, (2-amino-4,5,6,7-tetrahydrobenzo[b]thiophen-3-yl)(4-chlorophenyl)-methanone]: the Adverse side effects entry in the data set with adenosine A1 receptors (compared with administration of adenosine) is given as “devoid of the adverse side effects associated with administration of adenosine”. The “Effect on inflammatory and neuropathic pain” value with adenosine A1 receptors (orally effective) is “reduce inflammatory and neuropathic pain”. Besides, the Tmax in data set [1] (setting [2]) came out at 1 h; in data set [1] (setting [3]) it was 2 h; in data set [1] (Day 1, single dose 100 mg (oral dosage form 4), n = 8) it was 1 h. In addition, the AUC(0-inf) in data set [1] (setting [4]) was determined as 96.9 ng·h/mL; in data set [1] (setting [5]), 407 ng·h/mL; in data set [1] (setting [2]) it was 254 ng·h/mL; in data set [1] (setting [6]), 995 ng·h/mL; in data set [1] (setting [3]), 496 ng·h/mL; in data set [1] (setting [7]), 2210 ng·h/mL. The Cmax in data set [1] (setting [4]) turned out to be 28.8 ng/mL; in data set [1] (setting [5]) it was 55.9 ng/mL; in data set [1] (setting [2]), 60.7 ng/mL; in data set [1] (setting [6]), 107 ng/mL; in data set [1] (setting [3]), 71.4 ng/mL; in data set [1] (setting [7]) it was 179 ng/mL. The AUC came out at 89.5 ng·h/mL in data set [1] (setting [4]); 197 ng·h/mL in data set [1] (setting [5]); 211 ng·h/mL in data set [1] (setting [2]); 450 ng·h/mL in data set [1] (setting [6]); 399 ng·h/mL in data set [1] (setting [3]); 958 ng·h/mL in data set [1] (setting [7]).
